# Test results from US20090264433A1, “Compounds, Compositions and Methods Comprising Triazine Derivatives” (Institute for OneWorld Health, priority 2008, published 2009).
# Where a name gives a salt, the structure may show the parent alone.
# Target: T1, CFTR channel in human colonic T84 cells (Homo sapiens, UniProt P13569)
# T1 construct: results in the phosphorylation and opening of CFTR anion channels; host or cells: human colonic T84 cells
# Assay: T84 assay (FLIPR membrane potential dye, forskolin/IBMX-stimulated CFTR)
# Format: cell-based
# Details: average of at least 2 runs unless annotated n = 1
# Procedure, shortened: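 T84 cells (25,000/well, grown overnight) were washed in HBSS with 10 mM Hepes, then loaded with FLIPR Red membrane potential dye for 45 min with or without compound. CFTR was stimulated with 10 μM forskolin plus 100 μM IBMX after a 10 s baseline. Depolarization was tracked as a fluorescence increase, read every second for 150 s.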
# T1 sequence (P13569 whole entry): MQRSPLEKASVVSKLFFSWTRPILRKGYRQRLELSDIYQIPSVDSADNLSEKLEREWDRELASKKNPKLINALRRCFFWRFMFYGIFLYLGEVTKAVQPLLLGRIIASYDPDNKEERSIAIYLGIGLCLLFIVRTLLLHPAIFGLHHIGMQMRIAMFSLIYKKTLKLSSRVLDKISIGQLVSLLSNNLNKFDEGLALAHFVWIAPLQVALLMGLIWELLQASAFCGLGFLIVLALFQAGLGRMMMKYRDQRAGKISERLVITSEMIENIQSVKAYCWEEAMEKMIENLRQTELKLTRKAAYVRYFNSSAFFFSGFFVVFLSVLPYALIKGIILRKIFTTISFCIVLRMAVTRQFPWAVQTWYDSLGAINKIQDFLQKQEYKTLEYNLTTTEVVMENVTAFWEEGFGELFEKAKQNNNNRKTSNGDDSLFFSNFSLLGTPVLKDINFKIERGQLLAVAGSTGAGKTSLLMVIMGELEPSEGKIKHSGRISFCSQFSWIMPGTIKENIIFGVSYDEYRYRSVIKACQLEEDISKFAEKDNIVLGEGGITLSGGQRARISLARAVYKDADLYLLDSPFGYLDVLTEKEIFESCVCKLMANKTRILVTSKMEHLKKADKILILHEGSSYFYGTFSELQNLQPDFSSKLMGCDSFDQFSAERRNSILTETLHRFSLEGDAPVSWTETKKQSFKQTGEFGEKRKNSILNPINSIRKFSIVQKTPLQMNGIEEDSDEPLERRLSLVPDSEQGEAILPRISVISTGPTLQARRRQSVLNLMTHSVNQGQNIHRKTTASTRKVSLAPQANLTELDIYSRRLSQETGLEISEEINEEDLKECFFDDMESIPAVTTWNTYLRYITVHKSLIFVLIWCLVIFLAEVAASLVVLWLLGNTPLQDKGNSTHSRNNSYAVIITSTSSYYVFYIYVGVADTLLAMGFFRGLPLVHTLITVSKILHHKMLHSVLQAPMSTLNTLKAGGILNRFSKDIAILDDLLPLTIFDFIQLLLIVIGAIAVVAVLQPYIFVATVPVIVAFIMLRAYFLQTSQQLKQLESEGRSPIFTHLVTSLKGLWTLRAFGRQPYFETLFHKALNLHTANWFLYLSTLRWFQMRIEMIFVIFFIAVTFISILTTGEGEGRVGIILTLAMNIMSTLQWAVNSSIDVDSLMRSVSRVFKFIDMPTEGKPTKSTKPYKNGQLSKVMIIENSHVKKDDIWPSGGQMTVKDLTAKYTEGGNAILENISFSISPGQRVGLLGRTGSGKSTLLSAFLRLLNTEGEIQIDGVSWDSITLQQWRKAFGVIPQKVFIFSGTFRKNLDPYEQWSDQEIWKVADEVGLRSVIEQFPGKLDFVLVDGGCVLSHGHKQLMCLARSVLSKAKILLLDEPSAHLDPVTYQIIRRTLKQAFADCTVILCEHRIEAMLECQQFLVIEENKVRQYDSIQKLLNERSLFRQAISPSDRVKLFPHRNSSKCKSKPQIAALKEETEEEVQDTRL
row,SMILES,IC50 [µM]
1,"Cc1cc(Cl)ccc1OCc1ncc(-c2cc(Cl)c(O)c(Cl)c2)nn1 [Compound 40, 2,6-dichloro-4-(3-((4-chloro-2-methylphenoxy)methyl)-1,2,4-triazin-6-yl)phenol]",10.5
2,"C=CCc1ccccc1OCc1ncc(-c2cc(Br)c(O)c(Br)c2)nn1 [Compound 44, 4-(3-((2-allylphenoxy)methyl)-1,2,4-triazin-6-yl)-2,6-dibromophenol]",12.7
3,"Oc1c(Cl)cc(-c2cnc(OCc3ccc(CN4CCC(Cc5ccccc5)CC4)cc3)nn2)cc1Cl [Compound 168, 4-(3-(4-((4-benzylpiperidin-1-yl)methyl)benzyloxy)-1,2,4-triazin-6-yl)-2,6-dichlorophenol]",13.9
4,"Oc1c(Cl)cc(-c2cnc(OCc3ccc(CNCc4ccc(F)cc4)cc3)nn2)cc1Cl [Compound 164, 2,6-dichloro-4-(3-(4-((4-fluorobenzylamino)methyl)benzyloxy)-1,2,4-triazin-6-yl)phenol]",28.5
5,"CN(Cc1ccc(COc2ncc(-c3cc(Cl)c(O)c(Cl)c3)nn2)cc1)Cc1ccc(-c2ccncc2)cc1 [Compound 187, 2,6-dichloro-4-(3-(4-((methyl(4-(pyridin-4-yl)benzyl)amino)methyl)benzyl-oxy)-1,2,4-triazin-6-yl)phenol]",3.79
6,"Oc1c(Cl)cc(-c2cnc(OCc3ccc(CN4CCC(C(O)(c5ccccc5)c5ccccc5)CC4)cc3)nn2)cc1Cl [Compound 174, 2,6-dichloro-4-(3-(4-((4-(hydroxydiphenylmethyl)piperidin-1-yl)methyl)benzyloxy)-1,2,4-triazin-6-yl)phenol, formate salt]",15.1
7,"Oc1c(Br)cc(-c2cnc(OCCc3ccccc3Cl)nn2)cc1Br [Compound 94, 2,6-dibromo-4-(3-(2-chlorophenethoxy)-1,2,4-triazin-6-yl)phenol]",0.34
8,"Oc1c(Br)cc(-c2cnc(OCc3ccc(CN4CCOCC4)cc3)nn2)cc1Br [Compound 110, 2,6-dibromo-4-(3-(4-(morpholinomethyl)benzyloxy)-1,2,4-triazin-6-yl)phenol]",12.9
9,"Oc1c(Br)cc(-c2cnc(OCc3cc(Br)cs3)nn2)cc1Br [Compound 107, 2,6-dibromo-4-(3-((4-bromothiophen-2-yl)methoxy)-1,2,4-triazin-6-yl)phenol]",0.44
10,"O=C(O)c1ccccc1N1CCN(Cc2ccc(COc3ncc(-c4cc(Cl)c(O)c(Cl)c4)nn3)cc2)CC1 [Compound 144, 2-(4-(4-((6-(3,5-dichloro-4-hydroxyphenyl)-1,2,4-triazin-3-yloxy)methyl)benzyl)piperazin-1-yl)benzic acid]",28.6
11,"Oc1c(Br)cc(-c2cnc(OCCCc3ccc(Cl)cc3)nn2)cc1Br [Compound 95, 2,6-dibromo-4-(3-(3-(4-chlorophenyl)propoxy)-1,2,4-triazin-6-yl)phenol]",0.61
12,"CN1CCN(CC(NCc2ccc(COc3ncc(-c4cc(Cl)c(O)c(Cl)c4)nn3)cc2)c2ccccc2)CC1 (stereo not drawn) [Compound 195, 2,6-dichloro-4-(3-(4-((2-(4-methylpiperazin-1-yl)-1-phenylethylamino)methyl)benzyloxy)-1,2,4-triazin-6-yl)phenol]",7.47
13,"Oc1c(Cl)cc(-c2cnc(OCc3ccc(F)c(F)c3)nn2)cc1Cl [Compound 147, 2,6-dichloro-4-(3-(3,4-difluorobenzyloxy)-1,2,4-triazin-6-yl)phenol]",2.83
14,"Oc1c(Br)cc(-c2cnc(-c3cccc(Oc4ccccc4)c3)nn2)cc1Br [Compound 129, 2,6-dibromo-4-(3-(3-phenoxyphenyl)-1,2,4-triazin-6-yl)phenol]",24.8
15,"Oc1c(Cl)cc(-c2cnc(OCCc3cccc4ccccc34)nn2)cc1Cl [Compound 115, 2,6-dichloro-4-(3-(2-(naphthalen-1-yl)ethoxy)-1,2,4-triazin-6-yl)phenol]",0.35
16,"CN(Cc1ccc(COc2ncc(-c3cc(Cl)c(O)c(Cl)c3)nn2)cc1)Cc1cccc(-c2cncnc2)c1 [Compound 206, 2,6-dichloro-4-(3-(4-((methyl(3-(pyrimidin-5-yl)benzyl)amino)methyl)benzyl-oxy)-1,2,4-triazin-6-yl)phenol]",9.6
17,"Oc1c(Cl)cc(-c2cnc(OCc3cccc(Cl)c3Cl)nn2)cc1Cl [Compound 114, 2,6-dichloro-4-(3-(2,3-dichlorobenzyloxy)-1,2,4-triazin-6-yl)phenol]",3.36
18,"Oc1c(Cl)cc(-c2cnc(OCc3cccc4ccccc34)nn2)cc1Cl [Compound 116, 2,6-dichloro-4-(3-(naphthalen-1-ylmethoxy)-1,2,4-triazin-6-yl)phenol]",1.89
19,"Oc1c(Cl)cc(-c2cnc(OCc3ccc(CN(Cc4ccccc4)Cc4ccccc4)cc3)nn2)cc1Cl [Compound 167, 2,6-dichloro-4-(3-(4-((dibenzylamino)methyl)benzyl-oxy)-1,2,4-triazin-6-yl)phenol]",6.61
20,"Oc1c(Br)cc(-c2cnc(OCc3ccncc3)nn2)cc1Br [Compound 106, 2,6-dibromo-4-(3-(pyridin-4-ylmethoxy)-1,2,4-triazin-6-yl)phenol]",18.1
21,"OCCN(Cc1ccc(COc2ncc(-c3cc(Cl)c(O)c(Cl)c3)nn2)cc1)Cc1cccnc1 [Compound 191, 2,6-dichloro-4-(3-(4-(((2-hydroxyethyl)(pyridin-3-ylmethyl)amino)methyl)benzyl-oxy)-1,2,4-triazin-6-yl)phenol]",19.8
22,"Oc1c(Br)cc(-c2cnc(OCc3cccc(Cl)c3)nn2)cc1Br [Compound 7, 2,6-dibromo-4-(3-(3-chlorobenzyloxy)-1,2,4-triazin-6-yl)phenol]",0.72
23,"Oc1c(Br)cc(-c2cnc(COc3cc(Cl)ccc3Cl)nn2)cc1Br [Compound 43, 2,6-dibromo-4-(3-((2,5-dichlorophenoxy)methyl)-1,2,4-triazin-6-yl)phenol]",11.1
24,"Oc1c(Br)cc(-c2cnc(OCCc3ccc(Cl)c(Cl)c3)nn2)cc1Br [Compound 99, 2,6-dibromo-4-(3-(3,4-dichlorophenethoxy)-1,2,4-triazin-6-yl)phenol]",0.26
25,"Oc1c(Cl)cc(-c2cnc(OCc3ccc(OC(F)(F)F)cc3)nn2)cc1Cl [Compound 154, 2,6-dichloro-4-(3-(4-(trifluoromethoxy)benzyloxy)-1,2,4-triazin-6-yl)phenol]",1.56
26,"Oc1c(Br)cc(-c2cnc(COc3cccc4ccccc34)nn2)cc1Br [Compound 33, 2,6-Dibromo-4-(3-((naphthalen-1-yloxy)methyl)-1,2,4-triazin-6-yl)phenol]",5.39
27,"Cc1cc(OCc2ncc(-c3cc(Br)c(O)c(Br)c3)nn2)cc(C)c1Cl [Compound 47, 2,6-dibromo-4-(3-((4-chloro-3,5-dimethylphenoxy)methyl)-1,2,4-triazin-6-yl)phenol]",14.7
28,"Oc1c(Br)cc(-c2cnc(Oc3ccc(Cl)c(Cl)c3)nn2)cc1Br [Compound 21, 2,6-dibromo-4-(3-(3,4-dichlorophenoxy)-1,2,4-triazin-6-yl)phenol]",2.12
29,"Oc1c(Br)cc(-c2cnc(OC3c4ccccc4Oc4ccccc43)nn2)cc1Br [Compound 91, 4-(3-(9H-xanthen-9-yloxy)-1,2,4-triazin-6-yl)-2,6-dibromophenol]",4.09
30,"O=[N+]([O-])c1ccccc1SCc1ncc(-c2cc(Br)c(O)c(Br)c2)nn1 [Compound 131, 2,6-dibromo-4-(3-((2-nitrophenylthio)methyl)-1,2,4-triazin-6-yl)phenol]",14.8
